# Measurements as given in patent publication US8440700B2, “Substituted aryloxazoles and their use” (Bayer Intellectual Property GmbH, priority 2007, dated 2013).
# Experiments:
# Type in all cases: cell-based
# adenosine A1 receptor = biological target: T1, adenosine A1 receptor (Homo sapiens, UniProt P30542); assay: Indirect determination of adenosine agonism by way of gene expression (luciferase, CHO cells), A1; details: CHO cells stably transfected with A1 receptor cDNA; 1 μM forskolin; 50% inhibition of luciferase answer
# T1 construct: expressed in transfected cells; host or cells: CHO (Chinese Hamster Ovary)
# T1 sequence (P30542 1-326): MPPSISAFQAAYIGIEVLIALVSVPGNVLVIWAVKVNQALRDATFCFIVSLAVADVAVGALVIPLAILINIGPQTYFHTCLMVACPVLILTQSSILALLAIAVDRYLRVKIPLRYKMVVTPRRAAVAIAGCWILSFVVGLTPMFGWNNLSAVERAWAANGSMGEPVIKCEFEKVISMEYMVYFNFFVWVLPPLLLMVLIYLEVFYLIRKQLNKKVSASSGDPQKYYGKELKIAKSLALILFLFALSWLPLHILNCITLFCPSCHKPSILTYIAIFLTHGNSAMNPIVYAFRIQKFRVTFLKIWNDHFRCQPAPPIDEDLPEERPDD
# Text: (§1) B-1. Indirect Determination of the Adenosine Agonism by Way of Gene Expression
# (§2) Cells of the CHO (Chinese Hamster Ovary) permanent cell line are transfected stably with the cDNA for the adenosine receptor subtypes A1, A2a and A2b. The adenosine A1 receptors are coupled to the adenylate cyclase by way of Gi proteins, while the adenosine A2a and A2b receptors are coupled by way of Gs proteins. In correspondence with this, the formation of cAMP in the cell is inhibited or stimulated, respectively. After that, expression of the luciferase is modulated by way of a cAMP-dependent promoter. The luciferase test is optimized, with the aim of high sensitivity and reproducibility, low variance and good suitability for implementation on a robot system, by varying several test parameters, such as cell density, duration of the growth phase and the test incubation, forskolin concentration and medium composition. The following test protocol is used for pharmacologically characterizing cells and for the robot-assisted substance screening:
# (§3) The stock cultures are grown, at 37° C. and under 5% CO2, in DMEM/F12 medium containing 10% FCS (foetal calf serum) and in each case split 1:10 after 2-3 days. The test cultures are seeded in 384-well plates with 2000 cells per well and grown at 37° C. for approx. 48 hours. The medium is then replaced with a physiological sodium chloride solution (130 mM sodium chloride, 5 mM potassium chloride, 2 mM calcium chloride, 20 mM HEPES, 1 mM magnesium chloride hexahydrate, 5 mM sodium bicarbonate, pH 7.4). The substances to be tested, which are dissolved in DMSO, are pipetted into the test cultures (maximum final concentration of DMSO in the test mixture: 0.5%) in a dilution series of from 5×10^−11M to 3×10^−6M (final concentration). 10 minutes later, forskolin is added to the A1 cells and all the cultures are subsequently incubated at 37° C. for four hours. After that, 35 μl of a solution which is composed of 50% lysis reagent (30 mM disodium hydrogenphosphate, 10% glycerol, 3% TritonX100, 25 mM TrisHCl, 2 mM dithiotreitol (DTT), pH 7.8) and 50% luciferase substrate solution (2.5 mM ATP, 0.5 mM luciferin, 0.1 mM coenzyme A, 10 mM tricine, 1.35 mM magnesium sulphate, 15 mM DTT, pH 7.8) are added to the test cultures, which are shaken for approx. 1 minute and the luciferase activity is measured using a camera system. The EC50 values are determined, i.e., the concentrations at which 50% of the luciferase answer is inhibited in the case of the A1 cell, and, respectively, 50% of the maximum stimulation with the corresponding substance is achieved in the case of the A2b and A2a cells. […] Pharmacol., 357 (1998), 1-9).
# (§4) Table 18 below lists the EC50 values of representative working examples for the receptor stimulation on adenosine A1, A2a and A2b receptor subtypes: […]
# adenosine A2a receptor = biological target: T2, adenosine A2a receptor (Homo sapiens, UniProt P29274); assay: Indirect determination of adenosine agonism by way of gene expression (luciferase, CHO cells), A2a; details: CHO cells stably transfected with A2a receptor cDNA; 50% of maximum luciferase stimulation
# T2 construct: expressed in transfected cells; host or cells: CHO (Chinese Hamster Ovary)
# Text: as §1, §2, §3, §4
# adenosine A2b receptor = biological target: T3, adenosine A2b receptor (Homo sapiens, UniProt P29275); assay: Indirect determination of adenosine agonism by way of gene expression (luciferase, CHO cells), A2b; details: CHO cells stably transfected with A2b receptor cDNA; 50% of maximum luciferase stimulation
# T3 construct: expressed in transfected cells; host or cells: CHO (Chinese Hamster Ovary)
# T3 sequence (P29275 1-332): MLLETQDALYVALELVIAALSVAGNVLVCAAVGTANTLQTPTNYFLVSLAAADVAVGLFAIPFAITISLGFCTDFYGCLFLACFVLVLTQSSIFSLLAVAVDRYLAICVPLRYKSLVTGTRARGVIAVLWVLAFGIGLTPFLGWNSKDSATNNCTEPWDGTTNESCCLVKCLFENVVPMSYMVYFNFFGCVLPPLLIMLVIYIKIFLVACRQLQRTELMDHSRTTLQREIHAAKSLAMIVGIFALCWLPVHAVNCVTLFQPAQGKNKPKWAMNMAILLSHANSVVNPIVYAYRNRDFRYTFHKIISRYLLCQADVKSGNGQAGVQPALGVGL
# Text: as §1, §2, §3, §4
# T2 sequence (P29274 whole entry): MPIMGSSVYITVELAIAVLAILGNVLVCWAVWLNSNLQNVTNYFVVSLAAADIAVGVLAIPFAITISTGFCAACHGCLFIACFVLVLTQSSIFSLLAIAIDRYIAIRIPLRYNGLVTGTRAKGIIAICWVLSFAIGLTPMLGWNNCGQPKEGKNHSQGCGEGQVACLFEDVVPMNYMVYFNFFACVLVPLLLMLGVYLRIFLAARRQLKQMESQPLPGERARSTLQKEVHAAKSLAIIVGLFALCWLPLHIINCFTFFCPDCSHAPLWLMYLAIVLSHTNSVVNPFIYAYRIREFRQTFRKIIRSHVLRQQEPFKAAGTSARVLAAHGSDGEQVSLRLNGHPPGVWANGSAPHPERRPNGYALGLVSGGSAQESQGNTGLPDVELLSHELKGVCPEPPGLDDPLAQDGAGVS
SMILES,EC50 (adenosine A1 receptor),EC50 (adenosine A2a receptor),EC50 (adenosine A2b receptor)
N#Cc1c(N)nc(SCc2coc(-c3ccc(F)c(Cl)c3)n2)c(C#N)c1-c1ccc(OCCO)cc1 [Example 10],0.5 nM,1130 nM,922 nM
Cc1oc(-c2ccc(F)cc2)nc1CSc1nc(N)c(C#N)c(-c2ccc(OC[C@@H](O)CO)cc2)c1C#N [Example 50],0.4 nM,,118 nM
Cc1oc(-c2ccccc2F)nc1CSc1nc(N)c(C#N)c(-c2ccc(OC[C@@H](O)CO)cc2)c1C#N [Example 61],0.7 nM,439 nM,221 nM
Cc1cc(-c2nc(CSc3nc(N)c(C#N)c(-c4ccc(OC[C@H](O)CO)cc4)c3C#N)co2)ccc1Cl [Example 80],0.8 nM,461 nM,89 nM
N#Cc1c(N)nc(SCc2coc(-c3ccc(F)cc3)n2)c(C#N)c1-c1ccc(OC[C@@H](O)CO)cc1 [Example 81],0.3 nM,64 nM,20 nM
N#Cc1c(N)nc(SCc2ncoc2-c2ccc(Cl)cc2)c(C#N)c1-c1ccc(OC[C@@H](O)CO)cc1 [Example 93],8.9 nM,522 nM,336 nM
"Cc1oc(-c2ccc(C(=O)O)cc2)nc1CSc1nc(N)c(C#N)c(-c2ccc(OCC(C)(C)O)cc2)c1C#N [Example 95, 4-{4-[({6-Amino-3,5-dicyano-4-[4-(2-hydroxy-2-methylpropoxy)phenyl]pyridin-2-yl}thio)methyl]-5-methyl-1,3-oxazol-2-yl}benzoic acid]",0.5 nM,,
N#Cc1c(N)nc(SCc2coc(-c3ccc(F)cc3)n2)c(C#N)c1-c1ccc(OC[C@H](O)CO)cc1 [Example 101],0.4 nM,72 nM,226 nM
C[C@H](O)COc1ccc(-c2c(C#N)c(N)nc(SCc3coc(-c4ccc(Cl)cc4)n3)c2C#N)cc1 [Example 106],0.3 nM,318 nM,48 nM
"N#Cc1c(N)nc(OCc2coc(-c3ccc(Cl)cc3)n2)c(C#N)c1-c1ccc(OCCO)cc1 [Example 110, 2-Amino-6-{[2-(4-chlorophenyl)-1,3-oxazol-4-yl]methoxy}-4-[4-(2-hydroxyethoxy)phenyl]pyridine-3,5-dicarbonitrile]",0.3 nM,497 nM,95 nM
"N#Cc1c(SCc2coc(-c3ccc(Cl)cc3)n2)nc(N2CCCC2)c(C#N)c1-c1ccc(OCCO)cc1 [Example 116, 2-({[2-(4-Chlorophenyl)-1,3-oxazol-4-yl]methyl}sulfanyl)-4-[4-(2-hydroxyethoxy)phenyl]-6-(pyrrolidin-1-yl)pyridine-3,5-dicarbonitrile]",0.4 nM,,698 nM
N#Cc1c(NCCO)nc(SCc2coc(-c3ccc(Cl)cc3)n2)c(C#N)c1-c1ccc(OCCO)cc1 [Example 117],0.2 nM,1440 nM,1090 nM
N#Cc1c(NC[C@@H](O)CO)nc(SCc2coc(-c3ccc(Cl)cc3)n2)c(C#N)c1-c1ccc(OCCO)cc1 [Example 119],0.3 nM,1950 nM,
N#Cc1c(SCc2coc(-c3ccc(Cl)cc3)n2)nc(N2CC[C@@H](O)C2)c(C#N)c1-c1ccc(OCCO)cc1 [Example 127],0.4 nM,984 nM,283 nM
N#Cc1c(NCCO)nc(OCc2coc(-c3ccc(Cl)cc3)n2)c(C#N)c1-c1ccc(OCCO)cc1 [Example 129],0.4 nM,,

# Further lines, results first:
EC50 (adenosine A1 receptor),EC50 (adenosine A2a receptor),EC50 (adenosine A2b receptor),SMILES
0.3 nM,703 nM,845 nM,N#Cc1c(N)nc(SCc2coc(-c3ccc(F)c(F)c3)n2)c(C#N)c1-c1ccc(OCCO)cc1 [Example 11]
0.9 nM,467 nM,315 nM,Cc1cc(-c2nc(CSc3nc(N)c(C#N)c(-c4ccc(OCCO)cc4)c3C#N)co2)ccc1F [Example 31]
0.3 nM,138 nM,4.4 nM,"N#Cc1c(N)nc(SCc2coc(-c3ccc(Cl)cc3)n2)c(C#N)c1-c1ccc(OC[C@@H](O)CO)cc1 [Example 48, 2-Amino-6-({[2-(4-chlorophenyl)-1,3-oxazol-4-yl]methyl}sulfanyl)-4-(4-{[(2S)-2,3-dihydroxypropyl]oxy}phenyl)pyridine-3,5-dicarbonitrile]"
0.4 nM,300 nM,100 nM,"N#Cc1c(N)nc(SCc2coc(-c3ccc(Cl)cc3)n2)c(C#N)c1-c1ccc(OC[C@H](O)CO)cc1 [Example 49, 2-Amino-6-({[2-(4-chlorophenyl)-1,3-oxazol-4-yl]methyl}sulfanyl)-4-(4-{[(2R)-2,3-dihydroxypropyl]oxy}phenyl)pyridine-3,5-dicarbonitrile]"
0.2 nM,525 nM,44 nM,COC(=O)c1ccc(-c2nc(CSc3nc(N)c(C#N)c(-c4ccc(OC[C@@H](O)CO)cc4)c3C#N)c(C)o2)cc1 [Example 57]
0.3 nM,,236 nM,Cc1oc(-c2ccc(Cl)cc2)nc1CSc1nc(N)c(C#N)c(-c2ccc(OC[C@@H](O)CO)cc2)c1C#N [Example 60]
0.9 nM,575 nM,370 nM,COc1ccc(-c2nc(CSc3nc(N)c(C#N)c(-c4ccc(OC[C@H](O)CO)cc4)c3C#N)c(C)o2)cc1 [Example 66]
0.2 nM,1970 nM,969 nM,N#Cc1c(N)nc(OCc2coc(-c3ccc(F)c(F)c3)n2)c(C#N)c1-c1ccc(OCCO)cc1 [Example 114]
4.1 nM,,2250 nM,"N#Cc1c(NCCO)nc(SCc2coc(-c3ccc(Cl)cc3)n2)c(C#N)c1-c1ccc(OCCO)c(F)c1 [Example 122, 2-({[2-(4-Chlorophenyl)-1,3-oxazol-4-yl]methyl}sulfanyl)-4-[3-fluoro-4-(2-hydroxyethoxy)phenyl]-6-[(2-hydroxyethyl)amino]pyridine-3,5-dicarbonitrile]"
0.5 nM,684 nM,78 nM,N#Cc1c(SCc2coc(-c3ccc(Cl)cc3)n2)nc(N2CCC2)c(C#N)c1-c1ccc(OCCO)cc1 [Example 126]
0.1 nM,1050 nM,237 nM,N#Cc1c(SCc2coc(-c3ccc(Cl)cc3)n2)nc(N2CC(O)C2)c(C#N)c1-c1ccc(OCCO)cc1 [Example 128]
0.6 nM,,245 nM,N#Cc1c(OCc2coc(-c3ccc(Cl)cc3)n2)nc(N2CC(O)C2)c(C#N)c1-c1ccc(OCCO)cc1 [Example 130]
